# Results: patent publication US20260166122A1, “USE OF MICROPEPTIDE MIAC” (NANJING ANJI BIOTECHNOLOGY CO., LTD, priority 2023, published 2026)
# Where two headings read alike, the source gives them in different places. Ends that are not written are not given here.
# Tests used:
# osteosarcoma MG-63 cells = experiment: transwell migration inhibition, MG-63; type: cell-based, human; details: 48 h
# Protocol: Human prostate cancer, cervical cancer, osteosarcoma, ovarian cancer, melanoma, and hepatocellular carcinoma cells were inoculated into transwell chambers, with 100 μL per well; for an administration group, 100 μL of a micropeptide MIAC was added to each of the chambers at a different dose; and no medicament was added to a blank group. Then, 0.6 mL of a complete medium comprising 10% FBS was added to transwell lower chambers to stimulate cell migration, followed by incubation at 37° C. with 5% CO2 for 48 h. The culture medium in the wells was discarded, and the cells were fixed with methanol at room temperature for 30 min, stained with 0.1% crystal violet at room temperature for 10 min, and rinsed thoroughly with clear water; the unmigrated cells in the upper layer were wiped off with a cotton swab; and the migrated cells were observed under a microscope, and four visual fields were selected for photography and counting. The migration inhibition rate (MI) was calculated using the following formula: […]
# where Ntest represents the number of migrated cells in the administration group, and Ncontrol represents the number of migrated cells in the blank control group.
# [1] = system: human hepatocellular carcinoma Hep3B cells; experiment: subcutaneously transplanted Hep3B tumor in nude mice; type: in vivo, BALB/c nude mouse; details: Hep3B subcutaneous transplanted tumor, BALB/c nude mice, 5, 10, 15, 20 mg/kg; dose-dependent
# Protocol: Human hepatocellular carcinoma Hep3B cells were cultured in large quantities and digested with a 0.25% trypsin solution; and the cell suspension after digestion termination was centrifuged at 1000 rpm for 5 minutes, and the cells were resuspended in a serum-free MEM medium and then counted to adjust the cell concentration to 5×10^7 cells/mL. Each BALB/c nude mouse (4-6 weeks old, female, weighing 14-16 g, adaptively housed in an SPF animal breeding room for 1 week) was inoculated with 100 μL of the cell suspension in the left axilla, with an inoculated cell amount of 5×10^6 cells. After inoculation, the tumor growth at the inoculation site of nude mice was closely observed. On the 7th day after inoculation, white nodules appeared at the inoculation site, which could be moved subcutaneously upon touch. As the tumor tissue grew, a hard tumor mass gradually formed at the inoculation site. […] The volume of the transplanted tumor was measured and recorded every two days, and the formula for calculating the tumor volume (TV) was: tumor volume=0.5×a×b^2, where a is the length (mm) of the transplanted tumor and b is the width (mm) of the transplanted tumor.
# [2] = system: human breast cancer cells MX-1; type: cell-based; details: 72 h
# [3] = system: human lung giant cell carcinoma cells 95-D; type: cell-based; details: 72 h
sequence,measurement,setting,value
"MERAGVPGFSPRRSSVEAKMQSTSCSVRKSSTVTAWPAVVLLLSWGQRRGG [MIAC, micropeptide inhibiting actin cytoskeleton]",Inhibition rate (%),"osteosarcoma MG-63 cells; MG-63, 3.125 μmol/L",64.05%
same,Number of migrated cells,"osteosarcoma MG-63 cells; MG-63, 3.125 μmol/L",129.5 ± 19.9
same,Inhibition rate (%),"osteosarcoma MG-63 cells; MG-63, 6.25 μmol/L",83.21%
same,Number of migrated cells,"osteosarcoma MG-63 cells; MG-63, 6.25 μmol/L",60.5 ± 26.7
same,Inhibition rate (%),"osteosarcoma MG-63 cells; MG-63, 12.5 μmol/L",90.98%
same,Number of migrated cells,"osteosarcoma MG-63 cells; MG-63, 12.5 μmol/L",32.5 ± 6.0
same,Inhibition rate (%),"osteosarcoma MG-63 cells; MG-63, 25 μmol/L",93.13%
same,Number of migrated cells,"osteosarcoma MG-63 cells; MG-63, 25 μmol/L",24.8 ± 9.6
same,"in vivo tumor growth (tumor volume, tumor weight) versus blank control",[1],significantly inhibit the in vivo tumor growth
same,OD,"[2]; MX-1, 50 μM",1.020 ± 0.028
same,OD,"[2]; MX-1, 100 μM",0.808 ± 0.102
same,OD,"[2]; MX-1, 200 μM",0.630 ± 0.051
same,OD,[3]; 50 μM,1.188 ± 0.022
same,OD,[3]; 100 μM,0.863 ± 0.054
same,OD,[3]; 200 μM,0.341 ± 0.010
